ChEMBL document CHEMBL1201862, “PubChem BioAssay data set” (2004)
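Step 1: Grow cells in 96-well plates. Step 2: Expose to compound for 48 hours at 5 concentrations. Step 3: Interpolate endpoints linearly; if unreached, use highest concentration. The concentration for 50% growth inhibition is given as GI50.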 The source made the active and inactive calls. No stated cut-off is given here; in the data, active = GI50 up to about 1.1 µM and inactive = higher.

Tests used:
Assay in all cases: inhibition of tumour cell growth, NCI panel, 48 h
[1] = system: SNB-75
[2] = system: 786-0
[3] = system: HCT-116
[4] = system: SR
[5] = system: SF-268
[6] = system: UO-31
[7] = system: ACHN
[8] = system: RPMI-8226
[9] = system: A549
[10] = system: KM12
[11] = system: HL-60
[12] = system: TK-10
[13] = system: IGROV-1
[14] = system: UACC-257
[15] = system: HCC 2998
[16] = system: NCI-H23
[17] = system: Malme-3M

Measured: GI50

CCC1C(=O)OCc2c1cc1n(c2=O)CCC12OCCO2 (stereo not given)
inactive: [1] > 100 µM | [2] > 100 µM | [3] > 100 µM | [4] > 100 µM | [5] > 100 µM | [6] > 100 µM | [7] > 100 µM | [8] > 100 µM | [9] > 100 µM | [10] > 100 µM | [11] > 100 µM | [12] > 100 µM | [13] > 100 µM | [14] > 100 µM | [15] 63.8 µM | [16] > 100 µM

O=C(O)c1c[nH]c2c(ccc3ncccc32)c1=O
inactive: [1] > 100 µM | [2] > 100 µM | [17] > 100 µM | [3] > 100 µM | [4] > 100 µM | [5] > 100 µM | [6] > 100 µM | [7] > 100 µM | [9] > 100 µM | [10] > 100 µM | [11] > 100 µM | [12] > 100 µM | [13] > 100 µM | [15] > 100 µM | [16] > 100 µM

O=C(NS(=O)(=O)c1ccccc1)C(Cc1ccccc1)C(Cc1ccccc1)C(=O)NS(=O)(=O)c1ccccc1 (stereo not given)
inactive: [1] > 100 µM | [2] > 100 µM | [17] > 100 µM | [3] > 100 µM | [4] > 100 µM | [5] > 100 µM | [6] > 100 µM | [7] > 100 µM | [8] > 100 µM | [9] > 100 µM | [10] > 100 µM | [11] > 100 µM | [12] > 100 µM | [13] > 100 µM | [14] > 100 µM | [15] > 100 µM | [16] > 100 µM

O=[N+]([O-])c1cc(I)cc(/C=N/NS(=O)(=O)c2ccc(F)cc2)c1O
inactive: [1] 25 µM | [2] 28.4 µM | [17] 21.2 µM | [3] 22.9 µM | [4] 22.3 µM | [5] 28.9 µM | [6] 26.2 µM | [7] 30.7 µM | [8] 22.1 µM | [9] 35.5 µM | [10] 25.5 µM | [11] 28.4 µM | [12] 28.6 µM | [13] 33.7 µM | [14] 25.2 µM | [15] 33 µM | [16] 20 µM

O=[N+]([O-])c1ccc(NSc2ccccc2)cc1
inactive: [2] 16.4 µM | [17] > 100 µM | [3] 25.2 µM | [4] 10.7 µM | [5] 28.2 µM | [6] 26.8 µM | [7] 33.2 µM | [8] > 10 µM | [9] 29 µM | [10] 27.8 µM | [11] 15 µM | [12] 44.7 µM | [13] 10.7 µM | [14] 29.3 µM | [15] 50.6 µM | [16] 45.6 µM

O=S1(=O)CSc2ccc3ccccc3c2-c2c1ccc1ccccc21
inactive: [1] > 100 µM | [2] > 100 µM | [17] > 100 µM | [3] > 100 µM | [4] > 100 µM | [5] > 100 µM | [6] > 100 µM | [7] > 100 µM | [9] > 100 µM | [10] > 100 µM | [11] > 100 µM | [12] > 100 µM | [13] > 100 µM | [14] > 100 µM | [15] > 100 µM | [16] > 100 µM

CCOC(=O)C1(c2ccccc2)CCCNCC1 (stereo not given)
inactive: [1] > 100 µM | [2] > 100 µM | [17] > 100 µM | [3] 58.9 µM | [4] 33.1 µM | [5] > 100 µM | [6] > 100 µM | [7] 85.9 µM | [8] 88.1 µM | [9] > 100 µM | [10] > 100 µM | [11] 98.4 µM | [12] > 100 µM | [13] > 100 µM | [14] 68.1 µM | [15] > 100 µM | [16] 35.3 µM

CC(C)(C)CC(C)(C)c1ccc(OCCOCC[N+](C)(C)Cc2ccccc2)cc1 [BENZETHONIUM CHLORIDE]
inactive: [1] 2.43 µM | [2] 5.01 µM | [17] 1.52 µM | [3] 1.71 µM | [4] 2.03 µM | [5] 1.94 µM | [6] 21.6 µM | [7] 11.6 µM | [8] 1.29 µM | [9] 8.71 µM | [10] 1.61 µM | [12] 3.64 µM | [13] 1.52 µM | [14] 1.45 µM | [15] 1.5 µM | [16] 1.66 µM
active: [11] 0.883 µM

COC1C2C=CC(C2)[C@H]1[N+](=O)[O-] (stereo not given in full)
inactive: [1] > 100 µM | [2] > 100 µM | [17] > 100 µM | [3] > 100 µM | [4] > 100 µM | [5] > 100 µM | [6] > 100 µM | [7] > 100 µM | [9] > 100 µM | [10] > 100 µM | [11] 28.8 µM | [12] > 100 µM | [13] > 100 µM | [14] > 100 µM | [15] > 100 µM | [16] > 100 µM

CN1CCn2c(Br)ccc2C1=O
inactive: [2] > 100 µM | [17] > 100 µM | [3] > 100 µM | [4] > 100 µM | [5] > 100 µM | [6] > 100 µM | [7] > 100 µM | [8] > 100 µM | [9] > 100 µM | [10] > 100 µM | [11] > 100 µM | [12] > 100 µM | [13] > 100 µM | [14] > 100 µM | [15] > 100 µM | [16] > 100 µM

Cc1ccc(S(=O)(=O)C2c3nc4ccccc4cc3-c3nc4ccccc4nc32)cc1 (stereo not given)
inactive: [1] 53.8 µM | [2] > 100 µM | [17] > 100 µM | [3] > 100 µM | [4] > 100 µM | [5] > 100 µM | [6] > 100 µM | [7] > 100 µM | [8] > 100 µM | [9] > 100 µM | [10] > 100 µM | [11] > 100 µM | [12] > 100 µM | [13] > 100 µM | [14] > 100 µM | [15] > 100 µM | [16] > 100 µM

O=S1(=O)c2ccccc2N(O)C2=NCCN21
inactive: [1] > 100 µM | [2] > 100 µM | [17] > 100 µM | [3] > 100 µM | [4] > 100 µM | [5] > 100 µM | [6] > 100 µM | [7] > 100 µM | [8] > 100 µM | [9] > 100 µM | [10] > 100 µM | [11] > 100 µM | [12] > 100 µM | [13] > 100 µM | [14] > 100 µM | [15] > 100 µM | [16] > 100 µM

CCOC(=O)C(=O)Nc1c(C(C)C)cccc1C(C)C
inactive: [1] > 100 µM | [2] > 100 µM | [17] > 100 µM | [3] > 100 µM | [4] > 100 µM | [5] > 100 µM | [6] > 100 µM | [7] > 100 µM | [9] > 100 µM | [10] > 100 µM | [11] > 100 µM | [12] > 100 µM | [13] > 100 µM | [14] > 100 µM | [15] > 100 µM | [16] > 100 µM

O=[N+]([O-])c1ccc(-c2csc(=[N+]3CCCCC3)s2)cc1
inactive: [1] 3.61 µM | [2] 34.4 µM | [17] 12.1 µM | [3] 28.3 µM | [4] 11.1 µM | [5] 3.93 µM | [6] > 68.1 µM | [7] 40.6 µM | [8] 20.2 µM | [9] 1.93 µM | [10] 4.13 µM | [11] > 53.2 µM | [12] > 83.4 µM | [13] 4.48 µM | [14] 2.08 µM | [15] 21.1 µM | [16] 4.41 µM

CC(=O)CCn1ncc(Cl)c(Cl)c1=O
inactive: [1] 34.4 µM | [2] 20.5 µM | [17] 20.7 µM | [3] 14.5 µM | [4] 9.59 µM | [5] 12.1 µM | [6] 20 µM | [7] 17 µM | [8] 14.2 µM | [9] 23 µM | [10] 17.7 µM | [11] 8.39 µM | [12] 48.6 µM | [13] 18.7 µM | [14] 16.5 µM | [15] 9.51 µM | [16] 15 µM

N#CC(C(=O)C(=O)NCCCNC(=O)C(=O)C(C#N)c1ccccc1)c1ccccc1 (stereo not given)
inactive: [1] 30.1 µM | [2] > 100 µM | [17] > 100 µM | [3] > 100 µM | [4] > 100 µM | [5] > 100 µM | [6] > 100 µM | [7] > 100 µM | [8] > 100 µM | [9] > 100 µM | [10] > 100 µM | [11] > 100 µM | [12] > 100 µM | [13] > 100 µM | [14] > 100 µM | [15] > 100 µM | [16] > 100 µM

CC(=O)/C(=C\C1=CCCO1)C(=O)Nc1ccccc1C
inactive: [2] > 100 µM | [17] > 100 µM | [3] > 100 µM | [4] > 100 µM | [5] > 100 µM | [6] > 100 µM | [7] > 100 µM | [8] > 100 µM | [9] > 100 µM | [10] > 100 µM | [11] > 100 µM | [12] > 100 µM | [13] > 100 µM | [14] > 100 µM | [15] > 100 µM | [16] > 100 µM
